In this test the test system is B6C3F1 mice, ip Sarcoma M5076, median survival T/C. Put plainly: NCI In Vivo Anticancer Drug Screen. Data for tumor model Sarcoma M5076 (intraperitoneal) in B6C3F1 mice. Conditions: endpoint: median survival time, schedule: Q04DX004 (ip), higher = longer survival. The procedure, abridged: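 The readout is a ratio of survival in drug-treated animals to survival in animals given vehicle alone, taken in mice bearing a transplanted tumour line.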

Setting [1] is: dose: 6.25 mg/kg/injection, vehicle: other.
Setting [2] is: dose: 12.5 mg/kg/injection, vehicle: other.
The mark [3] stands for this setting: dose: 50.0 mg/kg/injection, vehicle: Klucel (hydroxypropylcellulose) (HPC).
Setting [4] is: dose: 100.0 mg/kg/injection, vehicle: Klucel (hydroxypropylcellulose) (HPC).
[5] abbreviates: dose: 200.0 mg/kg/injection, vehicle: Klucel (hydroxypropylcellulose) (HPC).
Where [6] appears, read: dose: 125.0 mg/kg/injection, vehicle: saline with Tween-80.
The mark [7] stands for this setting: dose: 37.5 mg/kg/injection, vehicle: saline.
The mark [8] stands for this setting: dose: 75.0 mg/kg/injection, vehicle: saline.
[9] abbreviates: dose: 150.0 mg/kg/injection, vehicle: saline.
The mark [10] stands for this setting: dose: 25.0 mg/kg/injection, vehicle: saline with Tween-80.
The mark [11] stands for this setting: dose: 50.0 mg/kg/injection, vehicle: saline with Tween-80.
The mark [12] stands for this setting: dose: 100.0 mg/kg/injection, vehicle: saline with Tween-80.
[13] abbreviates: dose: 200.0 mg/kg/injection, vehicle: saline with Tween-80.
The mark [14] stands for this setting: dose: 400.0 mg/kg/injection, vehicle: saline with Tween-80.
[15] abbreviates: dose: 31.25 mg/kg/injection, vehicle: saline with Tween-80.
Setting [16] is: dose: 62.5 mg/kg/injection, vehicle: saline with Tween-80.
Setting [17] is: dose: 18.0 mg/kg/injection, vehicle: saline.
The mark [18] stands for this setting: dose: 25.0 mg/kg/injection, vehicle: saline.
[19] abbreviates: dose: 30.0 mg/kg/injection, vehicle: saline.
The mark [20] stands for this setting: dose: 50.0 mg/kg/injection, vehicle: saline.

Several values for one entry are separate records, joined by “and”; a condition that tells them apart may be missing. Equal entries are not always repeated. Inconclusive results and toxic doses are left out.

The values that follow come from PubChem BioAssay AID292 (DTP/NCI, 2004).

As for `c1ccc2[nH]c(CN(CCN(Cc3nc4ccccc4[nH]3)Cc3nc4ccccc4[nH]3)Cc3nc4ccccc4[nH]3)nc2c1`, the T/C is, setting by setting: (dose: 3.12 mg/kg/injection, vehicle: other) 103 % of control; under setting [1], 108 % of control; under setting [2], 100 % of control.

Turning to `O=C1NC(=O)N(c2ccc(Cl)c(Cl)c2)C1=O`, the T/C is 93 % of control under setting [3]; 95 % of control under setting [4]; 92 % of control under setting [5]; 89 % of control (dose: 400.0 mg/kg/injection, vehicle: Klucel (hydroxypropylcellulose) (HPC)).

Consider `COc1cc(C(CC(C)=O)c2cc3c(cc2OC(C)=O)OCO3)cc(OC)c1OC` (stereo unspecified) (tested in a mixture with another compound), for which the T/C was 100 % of control (dose: 27.0 mg/kg/injection, vehicle: saline with Tween-80); 101 % of control and 103 % of control (dose: 45.0 mg/kg/injection, vehicle: saline with Tween-80); 111 % of control and 119 % of control (dose: 75.0 mg/kg/injection, vehicle: saline with Tween-80); 119 % of control under setting [6]; 124 % of control (dose: 208.3 mg/kg/injection, vehicle: saline with Tween-80).

`[Na+]`: the T/C by setting is: (dose: 50.0 mg/kg/injection, vehicle: water) 94 % of control; (dose: 100.0 mg/kg/injection, vehicle: water) 97 % of control; (dose: 200.0 mg/kg/injection, vehicle: water) 101 % of control; (dose: 400.0 mg/kg/injection, vehicle: water) 88 % of control; (dose: 800.0 mg/kg/injection, vehicle: water) 98 % of control.

In the case of `[N-]=[N+]=NCc1cnnn1C1OC(CO)C(O)C1O` (stereo unspecified), the T/C runs as follows: under setting [7], 104 % of control; under setting [8], 103 % of control; under setting [9], 104 % of control; (dose: 300.0 mg/kg/injection, vehicle: saline) 107 % of control; (dose: 600.0 mg/kg/injection, vehicle: saline) 103 % of control.

As for `COc1ccc(O)cc1`, the T/C by setting is: under setting [10], 102 % of control; under setting [11], 98 % of control; under setting [12], 105 % of control; under setting [13], 113 % of control.

Take `Cc1cc(Br)c2nsnc2c1[N+](=O)[O-]`: the T/C is, setting by setting: under setting [11], 96 % of control; under setting [12], 112 % of control; under setting [13], 104 % of control; under setting [14], 103 % of control; (dose: 800.0 mg/kg/injection, vehicle: saline with Tween-80) 87 % of control.

Consider `COc1ccc(/C=N/NC(=O)c2ccc(OCc3nc4ccccc4[nH]3)cc2)cc1`, for which the T/C is 99 % of control under setting [10]; 100 % of control under setting [11]; 103 % of control under setting [12]; 97 % of control under setting [13]; 97 % of control under setting [14].

As for `NC(=O)C(N)C(F)c1ccccc1` (stereo unspecified), the T/C was 100 % of control under setting [15]; 116 % of control under setting [16]; 93 % of control under setting [6]; 96 % of control (dose: 250.0 mg/kg/injection, vehicle: saline with Tween-80).

As for `O=C(Nc1cccc(O)c1)C(Cl)=C(Cl)Cl`, the T/C is, setting by setting: under setting [1], 96 % of control; under setting [2], 95 % of control.

With `C=CCNC(=O)c1ccccc1SC(C)=O`, the T/C is 103 % of control under setting [11], 96 % of control under setting [12], 90 % of control under setting [13] and 103 % of control under setting [14].

As for `c1ccc2c(c1)oc1cc3c(cc12)n1nnnc1c1cccn31`, the T/C (dose: 3.12 mg/kg/injection, vehicle: saline with Tween-80) was 90 % of control; the T/C (dose: 6.25 mg/kg/injection, vehicle: saline with Tween-80) was 95 % of control; the T/C (dose: 12.5 mg/kg/injection, vehicle: saline with Tween-80) was 90 % of control; the T/C under setting [10] is 87 % of control.

For `CNC(=O)Oc1ccc(S(=O)(=O)c2ccc(OC(=O)NC)cc2)cc1`, the T/C under setting [10] is 100 % of control; the T/C under setting [11] was 96 % of control and 104 % of control; the T/C under setting [12] is 96 % of control and 97 % of control; the T/C under setting [13] was 100 % of control and 101 % of control.

`O=C(CCl)N1CCN(C/C=C/c2ccccc2)CC1`: the T/C is, setting by setting: under setting [7], 106 % of control; under setting [8], 96 % of control; under setting [9], 96 % of control.

For the molecule `CS(=O)(=O)CS(=O)(=O)OCCF`, the T/C is, setting by setting: (dose: 12.5 mg/kg/injection, vehicle: saline) 152 % of control; under setting [17], 176 % of control; under setting [18], 189 % of control and 240 % of control; under setting [19], 244 % of control; under setting [20], 234 % of control and 262 % of control.

As for `CCCCCn1c(C)cc(/C=C\c2ccc3cc(C)ccc3[n+]2C)c1C`, the T/C is 103 % of control (dose: 1.0 mg/kg/injection, vehicle: saline); 111 % of control (dose: 2.0 mg/kg/injection, vehicle: saline); 111 % of control (dose: 4.0 mg/kg/injection, vehicle: saline); 114 % of control (dose: 8.0 mg/kg/injection, vehicle: saline).

As for `O=C([O][Bi]([c]1ccccc1)[c]1ccccc1)c1ccccc1`, the T/C is, setting by setting: (dose: 6.25 mg/kg/injection, vehicle: Klucel (hydroxypropylcellulose) (HPC)) 96 % of control; (dose: 12.5 mg/kg/injection, vehicle: Klucel (hydroxypropylcellulose) (HPC)) 111 % of control; (dose: 25.0 mg/kg/injection, vehicle: Klucel (hydroxypropylcellulose) (HPC)) 101 % of control; under setting [3], 95 % of control; under setting [4], 91 % of control.

`O=NNc1ccccn1`: the T/C was 109 % of control (dose: 3.13 mg/kg/injection, vehicle: saline); 117 % of control (dose: 6.25 mg/kg/injection, vehicle: saline); 172 % of control under setting [17]; 160 % of control under setting [18]; 156 % of control under setting [19]; 184 % of control under setting [20].

For `Cc1cc2c(=O)cc(-c3ccccc3)oc2c(C(=O)O)c1C`, the T/C by setting is: under setting [15], 98 % of control; under setting [16], 93 % of control; under setting [6], 113 % of control.

Regarding `Cc1ccc(C(=O)NC2C(=O)NC(C(C)C)C(=O)N3CCCC3C(=O)N(C)CC(=O)N(C)C(C(C)C)C(=O)OC2C)c2c1Oc1c(c(C(=O)NC3C(=O)NC(C(C)C)C(=O)N4CCCC4C(=O)N(C)CC(=O)N(C)C(C(C)C)C(=O)OC3C)c3nc(-c4ccccc4)c(=O)oc3c1C)N2` (stereo unspecified), the T/C is, setting by setting: (dose: 0.25 mg/kg/injection, vehicle: water) 101 % of control and 113 % of control; (dose: 0.5 mg/kg/injection, vehicle: water) 99 % of control; (dose: 1.0 mg/kg/injection, vehicle: water) 114 % of control.

Regarding `O=C(Nc1ccc2ccccc2c1)C1C(=O)C(=O)N(c2ccc3ccccc3c2)C1=O` (stereo unspecified), the T/C was 100 % of control under setting [3], 100 % of control under setting [4] and 93 % of control under setting [5].

Regarding `CCC(CC)C(=O)NCC(=O)NO`, the T/C under setting [10] was 93 % of control; the T/C under setting [11] was 93 % of control; the T/C under setting [12] was 93 % of control; the T/C under setting [13] was 97 % of control; the T/C under setting [14] is 92 % of control.
